Source: ChEMBL document CHEMBL3714766, “Tetrahydroisoquinoline compounds and their use as pyruvate dehydrogenase kinase inhibitors” (2015)

Biological target: Pyruvate dehydrogenase kinase (Homo sapiens, UniProt Q15119+Q15120+Q16654+Q15118)
Experiment: Binding affinity to pyruvate dehydrogenase kinase (unknown origin) by VER-00160364 probe based fluorescence polarization assay

| Structure (SMILES) | IC50 [nM] |
| --- | --- |
| O=C(c1ccc(O)cc1O)N1CCCc2cc(F)ccc21 | 100 |
| CC1CCc2cc(C(=O)N(C)c3cccc(F)c3)ccc2N1C(=O)c1ccc(O)cc1O (configuration not stated) | 100 |
| CC1CCc2cc(-c3ncccc3C#N)ccc2N1C(=O)c1ccc(O)cc1O (configuration not stated) | 100 |
| Cc1cnc(Cl)nc1-c1ccc2c(c1)CCC(C)N2C(=O)c1ccc(O)cc1O (configuration not stated) | 10 |
| CC1CCc2cc(C(=O)N(C)CC(F)(F)F)ccc2N1C(=O)c1cc(Cl)c(O)cc1O (configuration not stated) | 100 |
| CC1CCc2cc(C(=O)N(C)Cc3nc4ccccc4n3C)ccc2N1C(=O)c1ccc(O)cc1O (configuration not stated) | 100 |
| CC1CCc2cc(C(=O)N(C)Cc3ccc(Cl)cc3)ccc2N1C(=O)c1ccc(O)cc1O (configuration not stated) | 10 |
| COc1ccc(CN(C)C(=O)c2ccc3c(c2)CC[C@@H](C)N3C(=O)c2ccc(O)cc2O)cc1 | 10000 |
| CC1CCc2cc(-c3ccnn3C)ccc2N1C(=O)c1ccc(O)cc1O (configuration not stated) | 100 |
| C[C@H]1CCc2cc(C(=O)N(C)Cc3ccc(F)cc3)ccc2N1C(=O)c1ccc(O)cc1O | 100 |
| Cc1cnc(-c2ccc3c(c2)CCC(C)N3C(=O)c2cc(Cl)c(O)cc2O)n1C (configuration not stated) | 1000 |
| CN(C)C(=O)c1ccc2c(c1)CCCN2C(=O)c1ccc(O)cc1O | 100 |
| CC1CCc2cc(C(=O)N(C)Cc3ccc(F)cc3)ccc2N1C(=O)c1ccc(O)cc1O (configuration not stated) | 10 |
| CC1CCc2cc(C(=O)N3CCC3)ccc2N1C(=O)c1ccc(O)cc1O (configuration not stated) | 100 |
| CN(C(=O)c1ccc2c(c1)CCCN2C(=O)c1ccc(O)cc1O)c1cccc(F)c1 | 100 |
| O=C(c1ccc(O)cc1O)N1CCCc2cc(-c3ncccc3C(F)(F)F)ccc21 | 1000 |
| C[C@@H]1CCc2ccccc2N1C(=O)c1cc(Cl)c(O)cc1O | 10000 |
| N#Cc1cccnc1-c1ccc2c(c1)CCCN2C(=O)c1ccc(O)cc1O | 1000 |
| C[C@H]1CCc2cc(C(=O)N(C)Cc3cc4ccccc4[nH]3)ccc2N1C(=O)c1ccc(O)cc1O | 100 |
| CC1CCc2cc(-c3ncccc3Cl)ccc2N1C(=O)c1ccc(O)cc1O (configuration not stated) | 100 |
| CC1CCc2cc(C(=O)N(C)Cc3ccc(Cl)cc3)ccc2N1C(=O)c1cc(Cl)c(O)cc1O (configuration not stated) | 100 |
| C[C@H]1CCc2cc(C(=O)N(C)Cc3ccnc(Cl)c3)ccc2N1C(=O)c1ccc(O)cc1O | 100 |
| CC1CCc2cc(C(=O)N(C)Cc3cccnc3)ccc2N1C(=O)c1ccc(O)cc1O (configuration not stated) | 100 |
| C[C@H]1CCc2cc(-c3nc(Cl)nc4c3COCC4)ccc2N1C(=O)c1ccc(O)cc1O | 100 |
| CC1CCc2cc(-c3ncccc3C(F)(F)F)ccc2N1C(=O)c1ccc(O)cc1O (configuration not stated) | 100 |

| Structure (SMILES) | IC50 [nM] |
| --- | --- |
| C[C@H]1CCc2cc(C(=O)N(C)CC(F)(F)F)ccc2N1C(=O)c1ccc(O)cc1O | 100 |
| C[C@H]1CCc2ccccc2N1C(=O)c1cc(F)c(O)cc1O | 100 |
| CCc1cc(C(=O)N2c3ccc(F)cc3CCC2C)c(O)cc1O (configuration not stated) | 10000 |
| C[C@H]1CCc2cc(C(=O)N(C)Cc3ccc4c(ccn4C)c3)ccc2N1C(=O)c1ccc(O)cc1O | 100 |
| Cc1nc(C)c(-c2ccc3c(c2)CC[C@H](C)N3C(=O)c2ccc(O)cc2O)s1 | 1000 |
| C[C@@H]1CCc2ccccc2N1C(=O)c1ccc(O)cc1O | 10000 |
| CN(Cc1nc2ccccc2[nH]1)C(=O)c1ccc2c(c1)CCCN2C(=O)c1ccc(O)cc1O | 100 |
| CC1CCc2cc(C(=O)N(C)CCc3ccccn3)ccc2N1C(=O)c1ccc(O)cc1O (configuration not stated) | 100 |
| O=C(c1ccc(O)cc1O)N1CCCc2cc(-c3ncccc3Cl)ccc21 | 1000 |
| Cc1nc(C)c(-c2ccc3c(c2)CCCN3C(=O)c2ccc(O)cc2O)s1 | 100 |
| CC1CCc2cc(-c3nccn3C)ccc2N1C(=O)c1ccc(O)cc1O (configuration not stated) | 100 |
| CC1CCc2cc(-c3occc3C#N)ccc2N1C(=O)c1ccc(O)cc1O (configuration not stated) | 1000 |
| O=C(c1ccc2c(c1)CCCN2C(=O)c1ccc(O)cc1O)N1CCC1 | 1000 |
| COc1ccc2c(c1)CCCN2C(=O)c1ccc(O)cc1O | 100 |
| CC(C)c1ccc2c(c1)CCCN2C(=O)c1ccc(O)cc1O | 100 |
| O=C(c1ccc(O)cc1O)N1CCCc2cc(OC(F)(F)F)ccc21 | 1000 |
| Cn1nccc1-c1ccc2c(c1)CCCN2C(=O)c1ccc(O)cc1O | 100 |
| Cc1ccc2c(c1)CCCN2C(=O)c1ccc(O)cc1O | 100 |
| C[C@H]1CCc2cc(C(=O)O)ccc2N1C(=O)c1ccc(O)cc1O | 10000 |
| Cc1nccnc1-c1ccc2c(c1)CCC(C)N2C(=O)c1ccc(O)cc1O (configuration not stated) | 100 |
| Cc1ccnnc1-c1ccc2c(c1)CCC(C)N2C(=O)c1ccc(O)cc1O (configuration not stated) | 100 |
| CN(CCN)C(=O)c1ccc2c(c1)CCCN2C(=O)c1ccc(O)cc1O | 1000 |
| C[C@H]1CCc2cc(C(=O)N(C)Cc3ccc[n+](C)c3)ccc2N1C(=O)c1ccc(O)cc1O | 100 |
| CC1CCc2cc(C(=O)N3Cc4ccccc4C3)ccc2N1C(=O)c1ccc(O)cc1O (configuration not stated) | 100 |
| COc1ccc(CN(C)C(=O)c2ccc3c(c2)CCC(C)N3C(=O)c2ccc(O)cc2O)cc1OC (configuration not stated) | 100 |

| Structure (SMILES) | IC50 [nM] |
| --- | --- |
| CCOC(=O)CN(C)C(=O)c1ccc2c(c1)CCCN2C(=O)c1ccc(O)cc1O | 1000 |
| CC(c1cc2ccccc2o1)N(C)C(=O)c1ccc2c(c1)CCC(C)N2C(=O)c1ccc(O)cc1O (configuration not stated) | 100 |
| Cn1ccnc1-c1ccc2c(c1)CCCN2C(=O)c1ccc(O)cc1O | 1000 |
| CC1CCc2cc(-c3nccn3C)ccc2N1C(=O)c1cc(Cl)c(O)cc1O (configuration not stated) | 1000 |
| COc1ccc(CN(C)C(=O)c2ccc3c(c2)CCC(C)N3C(=O)c2ccc(O)cc2O)cc1 (configuration not stated) | 10 |
| O=C(c1ccc(O)cc1O)N1CCCc2cc(OCc3ccccc3)ccc21 | 10000 |
| CC1CCc2cc(-c3ncccc3C(F)(F)F)ccc2N1C(=O)c1cc(Cl)c(O)cc1O (configuration not stated) | 1000 |
| COc1ccccc1CN(C)C(=O)c1ccc2c(c1)CCC(C)N2C(=O)c1ccc(O)cc1O (configuration not stated) | 100 |
| CN(CCNC(=O)OC(C)(C)C)C(=O)c1ccc2c(c1)CCCN2C(=O)c1ccc(O)cc1O | 1000 |
| Cc1cccnc1-c1ccc2c(c1)CC[C@@H](C)N2C(=O)c1ccc(O)cc1O | 10000 |
| CC1CCc2cc(C(=O)N(C)Cc3cc4ccccc4[nH]3)ccc2N1C(=O)c1ccc(O)cc1O (configuration not stated) | 100 |
| Cc1nc(C)c(-c2ccc3c(c2)CCC(C)N3C(=O)c2ccc(O)cc2O)s1 (configuration not stated) | 10 |
| C[C@H]1CCc2cc(-c3ncccc3Cl)ccc2N1C(=O)c1ccc(O)cc1O | 100 |
| Cc1cccnc1-c1ccc2c(c1)CCCN2C(=O)c1ccc(O)cc1O | 1000 |
| Cc1cn(C)c(-c2ccc3c(c2)CCC(C)N3C(=O)c2cc(Cl)c(O)cc2O)n1 (configuration not stated) | 1000 |
| C[C@H]1CCc2cc(C(=O)N(C)Cc3ccnc4ccccc34)ccc2N1C(=O)c1ccc(O)cc1O | 10 |
| C[C@H]1CCc2cc(C(=O)N(C)C)ccc2N1C(=O)c1ccc(O)cc1O | 100 |
| Cc1cccnc1-c1ccc2c(c1)CCCN2C(=O)c1cc(C(F)(F)F)c(O)cc1O | 10000 |
| C[C@H]1CCc2cc(C(=O)N(C)Cc3ccc(Cl)cc3)ccc2N1C(=O)c1ccc(O)cc1O | 100 |
| Cc1cccnc1-c1ccc2c(c1)CC[C@H](C)N2C(=O)c1ccc(O)cc1O | 100 |
| CN(CC(F)(F)F)C(=O)c1ccc2c(c1)CCCN2C(=O)c1ccc(O)cc1O | 1000 |
| Cc1ccnnc1-c1ccc2c(c1)CC[C@H](C)N2C(=O)c1ccc(O)cc1O | 100 |
| CC1CCc2cc(C(=O)N(C)Cc3ccc(Cl)c(Cl)c3)ccc2N1C(=O)c1ccc(O)cc1O (configuration not stated) | 100 |
| C[C@H]1CCc2cc(C(=O)N3CCN(C(=O)OC(C)(C)C)CC3)ccc2N1C(=O)c1ccc(O)cc1O | 1000 |
| Cc1cccnc1-c1ccc2c(c1)CCC(C)N2C(=O)c1ccc(O)cc1O (configuration not stated) | 100 |

| Structure (SMILES) | IC50 [nM] |
| --- | --- |
| CC1CCc2cc(C(=O)N(C)Cc3cnn(C)c3)ccc2N1C(=O)c1ccc(O)cc1O (configuration not stated) | 100 |
| C[C@H]1CCc2cc(-c3ncccc3C(F)(F)F)ccc2N1C(=O)c1ccc(O)cc1O | 100 |
| Cc1cnc(Cl)nc1-c1ccc2c(c1)CC[C@@H](C)N2C(=O)c1ccc(O)cc1O | 10000 |
| CC1CCc2cc(-c3ncccc3Cl)ccc2N1C(=O)c1cc(Cl)c(O)cc1O (configuration not stated) | 1000 |
| O=C(c1ccc2c(c1)CCCN2C(=O)c1ccc(O)cc1O)N1CCc2ccccc21 | 100 |
| CC1CCc2cc(C(=O)N(C)C)ccc2N1C(=O)c1ccc(O)cc1O (configuration not stated) | 100 |
| CC1CCc2cc(C(=O)N(C)Cc3nc4ccccc4s3)ccc2N1C(=O)c1ccc(O)cc1O (configuration not stated) | 100 |
| O=C(c1ccc2c(c1)CCCN2C(=O)c1ccc(O)cc1O)N1CCCCC1 | 100 |
| Cc1nc(C)c(-c2ccc3c(c2)CCC(C)N3C(=O)c2cc(Cl)c(O)cc2O)s1 (configuration not stated) | 1000 |
| O=C(c1ccc(O)cc1O)N1CCCc2cc(Br)ccc21 | 1000 |
| C[C@H]1CCc2ccccc2N1C(=O)c1cc(Cl)c(O)cc1O | 100 |
| C[C@H]1CCc2cc(-c3ncccc3C#N)ccc2N1C(=O)c1ccc(O)cc1O | 100 |
| C[C@@H]1CCc2cc(C(=O)N(C)C)ccc2N1C(=O)c1ccc(O)cc1O | 10000 |
| CC1CCc2cc(C(=O)N(C)Cc3nc4ccccc4[nH]3)ccc2N1C(=O)c1ccc(O)cc1O (configuration not stated) | 100 |
| CC1CCc2cc(C(=O)N3CCCCC3)ccc2N1C(=O)c1ccc(O)cc1O (configuration not stated) | 100 |
| Cc1cccnc1-c1ccc2c(c1)CCC(C)N2C(=O)c1cc(Cl)c(O)cc1O (configuration not stated) | 100 |
| CN(Cc1ccccn1)C(=O)c1ccc2c(c1)CCCN2C(=O)c1ccc(O)cc1O | 1000 |
| CC1CCc2cc(C(=O)N(C)Cc3cc4cc(F)ccc4[nH]3)ccc2N1C(=O)c1ccc(O)cc1O (configuration not stated) | 100 |
| Cc1cnc(NC(C)C)nc1-c1ccc2c(c1)CC[C@H](C)N2C(=O)c1ccc(O)cc1O | 100 |
| CC1CCc2cc(-c3ncccc3C#N)ccc2N1C(=O)c1cc(Cl)c(O)cc1O (configuration not stated) | 1000 |
| C[C@H]1CCc2cc(C(=O)N(C)Cc3cccc4c3ccc[n+]4C)ccc2N1C(=O)c1ccc(O)cc1O | 100 |
| CN(CC(=O)O)C(=O)c1ccc2c(c1)CCCN2C(=O)c1ccc(O)cc1O | 1000 |
